This series in a line: gradient 5% acetonitrile 3 min, to 50% in 2 min, to 85% in 15 min, held 3 min, 100 µL/min. The following applies: column: Zorbax Extend-C18 2.1 x 50 mm; eluents: water / acetonitrile, 0.1% formic acid. The method, boiled down: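 Retention times come from adduct peaks that were picked computationally and then checked by hand. The standards, pure and pooled in mixtures of ~100 molecules, were run on a Zorbax Extend-C18 column (2.1 × 50 mm, 1.8 μm) at 100 μL/min with water and acetonitrile, each with 0.1% formic acid. Detection was by quadrupole time-of-flight mass spectrometry in positive and negative ionization mode, with a dead volume of 40 μL and a dwell volume of 900 μL.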
`CNC(=O)[C@@H]1CN(C(=O)CCn2nc(C)cc2C)C[C@H]1c1n[nH]c(C)n1` gave an RP-LC retention time of 554 s. The same measure for `Cc1ccc(N2C(=O)CN(S(C)(=O)=O)CC2(C)C(=O)NCc2ccccc2)cc1C` (centres undefined): 758 s; for `COC(=O)c1ccc(NC(=O)N2CCc3nc[nH]c3C2)cc1`: 591 s; for `Cc1ccc2c(c1)Oc1ccccc1N=C2`: 993 s. In the case of `Cc1csc(-c2ccc(N3CCN(C(=O)c4nccc5ccccc45)CC3)nc2)n1`, the RP-LC retention time turned out to be 829 s.

In turn, `Cc1ccc(C)c(S(=O)(=O)N2CC(c3noc(C)n3)C3(CCOCC3)C2)c1` (centres undefined) showed an RP-LC retention time of 929 s.

In the case of `Cc1cc(C)cc(NS(=O)(=O)c2cc(-c3[nH]ncc3C(=O)N3CCCCC3)oc2C)c1`, the RP-LC retention time came out at 807 s. The same measure for `CN1C(=O)CCc2cc(NC(=O)c3ccoc3)ccc21`: 653 s; for `CC(C)n1cnc2cc(CNC(=O)c3cc(F)ccc3F)ccc21`: 610 s; for `CCn1c(=O)c2ccccc2n(Cc2nc(-c3cccc(Br)c3)no2)c1=O`: 1120 s.

Consider `CC(C)n1c(N2CCN(C(=O)c3ccc(F)c(F)c3)CC2)cc(=O)n(C(C)C)c1=O`, for which the RP-LC retention time was 867 s. The value for `CCN1CCN(CCNC(=O)C2Cn3cccc3C(=O)N2CC(C)C)CC1` (centres undefined) was 562 s; that for `Cc1cc(C(=O)NCc2ccc(Cl)cc2)n(-c2ccccc2)n1` was 878 s. The same measure for `Cc1ccc(NC(=O)NCC2CCOCC2)cc1Cl`: 773 s; for `O=C(Cn1cc(-c2ccccc2)c2ncnc(N3CCOCC3)c21)NCC1CCCO1` (centres undefined): 644 s; for `COc1ccc(-c2c(C)noc2NC(C)=O)cc1S(=O)(=O)NCCc1ccc(Cl)cc1`: 894 s. The same measure for `CCOC(=O)c1cccc(N2C=C(C#N)S(=O)(=O)c3ccc(Cl)cc32)c1`: 996 s; for `CCCC(=O)Nc1ccc(CCc2nc3ccc(C(=O)NCc4ccco4)cc3[nH]2)cc1`: 635 s. In turn, `Cc1ccc(Nc2c(-c3ccc(N4CCOCC4)cc3)nc3ncccn23)cc1C` showed an RP-LC retention time of 716 s. In turn, `CCC(C)C(=O)NCCc1c[nH]c2cc(OC)ccc12` (centres undefined) came in with an RP-LC retention time of 728 s.

As for `CCn1ccc2sc(C)c(C(=O)NC(C)c3ccc(C)cc3C)c2c1=O` (centres undefined), the RP-LC retention time came to 975 s. `COC(=O)c1ccc(-c2nc3cnccn3c2Nc2ccc(Cl)cc2)cc1` displayed an RP-LC retention time of 953 s. On to `Cc1cc(Cl)ccc1S(=O)(=O)N1CCN(c2nc3ccncc3n(C)c2=O)CC1`, for which the RP-LC retention time was 615 s.

Turning to `CCc1ccccc1NS(=O)(=O)c1ccc(CN2C(=O)c3ccccc3C2=O)cc1`, the RP-LC retention time was 954 s. The same measure for `Cc1cccc(-c2nnc(-c3cccc(S(=O)(=O)N4CCOCC4)c3)o2)c1`: 885 s; for `CCc1ccc(CN(CC(=O)N2CCNCC2)C(=O)c2sccc2C)cc1`: 671 s; for `CCS(=O)(=O)c1nc2ccc(NS(=O)(=O)c3ccc4c(c3)oc(=O)n4C)cc2s1`: 805 s.

`O=C([C@@H]1C[C@H](F)CN1S(=O)(=O)c1ccccc1)N1CCCCC1` came in with an RP-LC retention time of 735 s.

Molecule `O=C(CN1C(=O)c2cccnc2Sc2ccccc21)NCCc1c[nH]c2ccc(Cl)cc12` came in with an RP-LC retention time of 817 s.

For the molecule `COc1ccc(-c2nnc(-c3ccc(Cl)c(S(=O)(=O)N4CCCCC4)c3)o2)cc1OC`, the RP-LC retention time was 1070 s.

Take `Cc1cc(C(=O)N2CCCC2)c2cc(Br)ccc2n1`: the RP-LC retention time was 677 s. Regarding `Cc1ccnc(N2CCC(C(=O)NCCSCc3ccco3)CC2)n1`, the RP-LC retention time is 680 s. In turn, `C[C@H]1CN(C(=O)Nc2ccc(F)cc2)C[C@@H]1c1nc(-c2cccnc2)no1` returned an RP-LC retention time of 760 s. The same measure for `CN1c2cc(F)ccc2C(=O)NC12CCN(C(=O)Nc1ccc3c(c1)OCCO3)CC2`: 725 s; for `Cc1ccc(NC(=O)NCC2CCOCC2)cc1C`: 726 s. The value for `O=C(Nc1ccc(N2CCN(c3ccccc3)C2=O)nc1)c1cccc(Cl)c1` was 959 s. In the case of `Cc1ccc(N2CN(Cc3ccccc3)S(=O)(=O)c3cccnc32)cc1`, the RP-LC retention time amounted to 1130 s. In turn, `Cc1ccc(Sc2nccnc2N2CCCC(C(=O)NCCCc3ccccc3)C2)cc1` (centres undefined) came in with an RP-LC retention time of 1210 s. The value for `Cc1cc2c(cc(C(=O)N3CCC(C(=O)NC4CCCC4)CC3)n2Cc2c(F)cccc2Cl)o1` was 998 s; that for `Cc1ccc(-n2cccc2CC(=O)NCc2ccc(N3CCOCC3)cc2)cc1` was 877 s; that for `COc1cc(CNC(=O)Cn2ccc3c(=O)n(C)c(=O)n(C)c32)cc(OC)c1` was 662 s. For `O=C1CC(c2nc3ccccc3n2CCN2CCOCC2)CN1Cc1ccccc1` (centres undefined), the RP-LC retention time turned out to be 597 s. The value for `c1ccc(-c2nnc(-c3cccnc3)o2)cc1` was 666 s; that for `Cc1nc2cc(N3CCCC(C(=O)O)C3)cnc2nc1C` (centres undefined) was 604 s.

On to `Cc1ccc(NS(=O)(=O)c2cc(-c3nc(C(C)C)cs3)cs2)c(Br)c1`, for which the RP-LC retention time was found to be 1220 s.

For `COc1ccc(-c2nnc(-c3ccc(Cl)c(S(=O)(=O)N4CCOCC4)c3)o2)cc1`, the RP-LC retention time amounted to 897 s.

For `CCn1c(C(=O)N2CCN(Cc3ccccc3)CC2)cc2c(-c3cccs3)nn(-c3ccccc3)c21`, the RP-LC retention time was determined as 819 s. The value for `CC1=C(CO)C(=O)O[C@@H]([C@@H](C)[C@H]2CCC3[C@@H]4C[C@H]5O[C@]56[C@@H](O)C=CC(=O)[C@]6(C)C4CC[C@@]32C)C1` (some centres undefined) was 759 s; that for `Cc1ccc(CN2CCCn3nc(C(=O)NCCCN4CCOCC4)cc3C2=O)cc1` was 618 s.

On to `CCCN1C(=O)COc2cc(-c3noc(C(=O)NCCc4ccc(S(N)(=O)=O)cc4)n3)ccc21`, for which the RP-LC retention time stood at 771 s.

On to `O=C(Nc1ccc(OCc2nnc(-c3ccccc3)o2)cc1)C1COc2ccccc2O1` (centres undefined), for which the RP-LC retention time amounted to 984 s. For the molecule `O=C(NCCc1cccs1)C1CCCN(C(=O)c2cc(-c3ccccn3)n[nH]2)C1` (centres undefined), the RP-LC retention time is 645 s. The same measure for `O=C(Cn1nc2c3sc(N4CCCCC4)nc3ncn2c1=O)Nc1ccc(F)cc1Cl`: 844 s; for `CN(C)C(=O)c1ccc(-c2nnc3ccc(NC(=O)C4CCC4)cn23)cc1`: 664 s; for `COCCN1C(=O)CS(=O)(=O)C12CCN(C(=O)C1(c3ccccc3)CC1)CC2`: 685 s. The same measure for `Cc1ccc2c(c1)N(S(C)(=O)=O)CCC(C(=O)Nc1cccc(Cl)c1C)O2` (centres undefined): 1020 s; for `O=C(Nc1ccc(F)cc1)N1CCC(CCOc2ccncc2)CC1`: 616 s; for `Cc1cnc(C(=O)NCC2Cn3cccc3C(=O)N2C)cn1` (centres undefined): 595 s. Regarding `CSc1ccc(-c2nc3ncccn3c2Nc2ccc(C)cc2C)cc1`, the RP-LC retention time came to 898 s.

The molecule `Cc1cccc(S(=O)(=O)N2CC3CN(C(=O)C4CCCCC4)CC(C2)O3)c1` registered an RP-LC retention time of 865 s. The same measure for `CC(Cc1ccco1)NC(=O)c1cc(-c2ccccn2)nc2ccccc12` (centres undefined): 843 s; for `Cc1c(NC(=O)OC[C@@H]2COCCN2)cn2ncnc(Nc3ccc4c(cnn4Cc4cccc(F)c4)c3)c12`: 674 s. The value for `CCn1cc(-c2ccccc2)cc1C(=O)NCCN1CCCC1` was 670 s.

`O=C(NCc1cccc(F)c1)c1cn2ccncc2n1`: the RP-LC retention time was 672 s. The value for `CCn1cc(S(=O)(=O)Nc2cccc(OC)c2)c2cccnc21` was 794 s; that for `COc1ccc(CCNC(=O)Nc2nnc(SC)s2)cc1` was 718 s.

Consider `O=C1NCCCCCN(C(=O)c2cnccn2)[C@H]2CCC[C@@H]12`, for which the RP-LC retention time is 620 s. `O=c1c2cc(-c3ccc4c(c3)OCO4)nn2ccn1Cc1nc(-c2ccc(F)cc2)no1` came in with an RP-LC retention time of 1020 s. With `COc1cc2nc(C(=O)N3CCCCC3)cc(Nc3cc(C)cc(C)c3)c2cc1OC`, the RP-LC retention time worked out at 760 s.

The molecule `COc1ccc(NC(=O)Cn2c(=O)n(-c3ccc(C)cc3)c(=O)c3c2cc(C)n3C)c(OC)c1` came in with an RP-LC retention time of 872 s. The value for `COc1ccc(-c2cn3c(CC(=O)NCc4ccccc4)csc3n2)cc1OC` was 693 s; that for `Cc1nc(-c2ccccc2)cc2nn(CC(=O)N3CCCc4ccccc43)c(=O)n12` was 1010 s. The value for `Cc1sc(NC(=O)C(C)C)nc1-c1ccc2c(c1)NC(=O)C(C)O2` (centres undefined) was 831 s.

Consider `CCN1C=C(C(=O)OCc2ccccc2C)C(C)=NS1(=O)=O`, for which the RP-LC retention time worked out at 1030 s.

For the molecule `COC(=O)c1cccc(NC(=O)NC2CCN(c3ccc(C)c(C)c3)C2=O)c1` (centres undefined), the RP-LC retention time was determined as 847 s.

Consider `CC(C)N1CCn2cc(S(=O)(=O)Nc3cccc(Cl)c3)cc2C1=O`, for which the RP-LC retention time came out at 805 s. Turning to `CC(C)C(=O)Nc1c(-c2ccc(F)cc2)nc2ccccn12`, the RP-LC retention time was 602 s. The value for `COc1ccc(NC(=O)Cn2c(Nc3cc(C)cc(C)c3)nc(C)cc2=O)cc1Cl` was 849 s.

In turn, `Cn1nc(C(F)(F)F)cc1C(=O)N1CCCC1c1cccc(F)c1` (centres undefined) registered an RP-LC retention time of 976 s.
